US10683307B2, “Compounds for use in antibacterial applications” (GLAXOSMITHKLINE INTELLECTUAL PROPERTY DEVELOPMENT LIMITED, priority 2015, dated 2020)
Where a name gives a salt, the structure may show the parent alone. Read-outs that look alike come from different tables or passages of the source.

Tests used:
Type in all cases: cell-based
Moraxella catarrhalis = conditions: unit inferred
[1] = test system: Mycobacterium tuberculosis H37Rv; assay: Mycobacterium Tuberculosis H37Rv Inhibition Assay; conditions: H37Rv strain, Middlebrook 7H9+ADC, resazurin fluorescence; for MIC: H37RV
E. faecium = conditions: G1 = E. faecium
Burkholderia cepacia = test system: Burkholderia cepacia; design: unit not given beside the values; conditions: unit not given
Enterococcus faecalis = test system: Enterococcus faecalis
Yersinia pestis = assay: microbe, parasite or virus in culture
Bacillus anthracis = assay: microbe, parasite or virus in culture
citrobacter spp = conditions: Table 1 column L = citrobacter spp; unit inferred
Francisella tularensis = assay: microbe, parasite or virus in culture
Legionella pneumophila = conditions: Table 1 column G = Legionella pneumophila; unit inferred
Serratia marcescens = conditions: Table 1 column N = Serratia marcescens; unit inferred
Providencia rettgeri = conditions: Table 1 column O = Providencia rettgeri; unit inferred
Staphylococcus aureus = test system: Staphylococcus aureus
Streptococcus pneumonia = conditions: Streptococcus pneumoniae
Streptococcus pyogenes = test system: Streptococcus pyogenes
Bacteroides ovatus = test system: Bacteroides ovatus
Bacteroides caccae = test system: Bacteroides caccae
Bacteroides fragilis = test system: Bacteroides fragilis
Streptococcus agalactiae = test system: Streptococcus agalactiae
[2] = test system: Burkholderia pseudomallei; conditions: Table 3 column E4 = Burkholderia pseudomallei
Burkholderia mallei = conditions: Table 3 column D4 = Burkholderia mallei
[3] = test system: Bacteroides thetaiotamicron

**Q.** Which MIC90 (Moraxella catarrhalis) does the source give for `COc1ccc2ncc(=O)n(CCN3CC[C@@H](CNCc4ncc5c(n4)NC(=O)CO5)C3)c2n1` [Formula (VII) free base, 2-({[((3S)-1-{2-[6-(methyloxy)-3-oxopyrido[2,3-b]pyrazin-4(3H)-yl]ethyl}-3-pyrrolidinyl)methyl]amino}methyl)-1H-pyrimido[5,4-b][1,4]oxazin-7(6H)-one] here?
**A.** < 0.016 µg/mL

**Q.** What about the “H37Rv MIC” value [1] of the same compound?
**A.** ≤0.16 µg/mL

**Q.** What about the MIC90 (E. faecium) of the same compound?
**A.** ≤0.125 µg/mL

**Q.** What about the MIC90 (Burkholderia cepacia) of the same compound?
**A.** ≤8

**Q.** And the MIC90 (Enterococcus faecalis)?
**A.** ≤0.25 µg/mL

**Q.** `COc1ccc2ncc(=O)n(CCN3CC[C@@H](CNCc4ncc5c(n4)NC(=O)CO5)C3)c2n1` [Formula (VII) HCl salt, 2-({[((3S)-1-{2-[6-(methyloxy)-3-oxopyrido[2,3-b]pyrazin-4(3H)-yl]ethyl}-3-pyrrolidinyl)methyl]amino}methyl)-1H-pyrimido[5,4-b][1,4]oxazin-7(6H)-one] was tested. Which MIC90 (Moraxella catarrhalis) did it give?
**A.** < 0.016 µg/mL

**Q.** What about the MIC90 (Yersinia pestis; Yersinia pestis) of the same compound?
**A.** ≤ 0.12 µg/mL

**Q.** What about the MIC [1] of the same compound?
**A.** ≤ 0.3 µg/mL

**Q.** And the MIC90 (Bacillus anthracis; Bacillus anthracis)?
**A.** ≤ 0.12 µg/mL

**Q.** What about the MIC90 (citrobacter spp) of the same compound?
**A.** ≤ 0.5 µg/mL

**Q.** What about the MIC90 (Francisella tularensis; Francisella tularensis) of the same compound?
**A.** ≤ 0.03 µg/mL

**Q.** What about the MIC90 (E. faecium) of the same compound?
**A.** ≤0.5 µg/mL

**Q.** And the MIC90 (Legionella pneumophila)?
**A.** ≤ 0.06 µg/mL

**Q.** And the MIC90 (Burkholderia cepacia)?
**A.** ≤16

**Q.** What about the MIC90 (Enterococcus faecalis; read-out: MIC90) of the same compound?
**A.** ≤ 0.5 µg/mL

**Q.** What about the MIC90 (Serratia marcescens) of the same compound?
**A.** ≤ 2 µg/mL

**Q.** And the MIC90 (Providencia rettgeri)?
**A.** ≤ 1 µg/mL

**Q.** With `COc1cnc2ccc(F)c(CN[C@H]3CC[C@H](NCc4cnc5c(n4)NC(=O)CO5)CC3)c2n1` [Formula (V) free base, 6-((((1R,4R)-4-(((6-fluoro-3-methoxyquinoxalin-5-yl)methyl)amino)cyclohexyl)amino)methyl)-2H-pyrazino[2,3-b][1,4]oxazin-3(4H)-one] as the compound, how does the MIC90 (Moraxella catarrhalis) read?
**A.** < 0.016 µg/mL

**Q.** What about the MIC [1] of the same compound?
**A.** ≤ 0.02 µg/mL

**Q.** And the MIC90 (E. faecium; Enterococcus faecium, read-out: MIC90)?
**A.** ≤ 0.5 µg/mL

**Q.** What about the MIC90 (Enterococcus faecalis; read-out: MIC90) of the same compound?
**A.** ≤ 0.5 µg/mL

**Q.** `COc1cnc2ccc(F)c(CN[C@@H]3CC[C@@H](NCc4cnc5c(n4)NC(=O)CO5)C[C@@H]3O)c2n1.Cl` [Formula (VI) HCl salt, 6-((((1R,3S,4R)-4-(((6-fluoro-3-methoxyquinoxalin-5-yl)methyl)amino)-3-hydroxycyclohexyl)amino)methyl)-2H-pyrazino[2,3-b][1,4]oxazin-3(4H)-one Hydrochloride] was tested. Which MIC90 (Staphylococcus aureus) did it give?
**A.** ≤ 0.125 µg/mL

**Q.** And the MIC90 (Yersinia pestis; Yersinia pestis)?
**A.** ≤ 0.125 µg/mL

**Q.** And the MIC90 (Streptococcus pneumonia)?
**A.** ≤ 0.25 µg/mL

**Q.** What about the MIC [1] of the same compound?
**A.** ≤ 0.02 µg/mL

**Q.** What about the MIC90 (Bacillus anthracis; Bacillus anthracis) of the same compound?
**A.** ≤ 0.25 µg/mL

**Q.** And the MIC90 (Francisella tularensis; Francisella tularensis)?
**A.** ≤ 0.063 µg/mL

**Q.** And the MIC90 (Streptococcus pyogenes)?
**A.** ≤ 0.063 µg/mL

**Q.** What about the MIC90 (Burkholderia cepacia) of the same compound?
**A.** ≤8

**Q.** How did the MIC [1] turn out when `Cn1cc(C(=O)O)c(=O)c2c(CC[C@H]3CC[C@H](NCc4cnc5c(n4)NC(=O)CS5)CC3)c(F)cc(F)c21` [Compound Z, TFA salt, 6,8-difluoro-1-methyl-4-oxo-5-(2-((1r,4s)-4-(((3-oxo-3,4-dihydro-2H-pyrazino [2,3-b][1,4]thiazin-6-yl)methyl)amino)cyclohexyl)ethyl)-1,4-dihydroquinoline-3-carboxylic acid] was run?
**A.** ≤ 0.1 µg/mL

**Q.** How did the MIC [1] turn out when `COc1ccc2ccc(=O)n(CCN3C[C@H](CNCc4cnc5c(n4)NC(=O)CS5)[C@H](O)C3)c2n1` [Compound Y, HCl salt, 1-{2-[(3S,4S)-3-hydroxy-4-{[({3-oxo-2H,3H,4H-pyrazino[2,3-b][1,4]thiazin-6-yl}methyl)amino]methyl}pyrrolidin-1-yl]ethyl}-7-methoxy-1,2-dihydro-1,8-naphthyridin-2-one] was run?
**A.** ≤ 0.02 µg/mL

**Q.** Which MIC [1] does the source give for `COc1cnc2ccc(F)c(CN[C@H]3CC[C@H](NCc4cnc5c(n4)NC(=O)CO5)C[C@H]3O)c2n1.Cl` [Compound W, HCl salt, 6-(((1S,3R,4S)-4-((7-Fluoro-2-methoxyquinoxalin-8-yl)methylamino)-3-hydroxycyclohexylamino)methyl)-2H-pyrazino[2,3-b][1,4]oxazin-3(4H)-one Hydrochloride] here?
**A.** ≤ 0.02 µg/mL

**Q.** Which MIC90 (Staphylococcus aureus) does the source give for `COc1cnc2ccc(F)c(CN[C@H]3CC[C@H](NCc4cnc5c(n4)NC(=O)CO5)C[C@H]3O)c2n1.Cl` [Compound W, 6-({[(1S,3R,4S)-4-{[(6-fluoro-3-methoxyquinoxalin-5-yl)methyl]amino}-3-hydroxycyclohexyl]amino}methyl)-2H,3H,4H-pyrazino[2,3-b][1,4]oxazin-3-one] here?
**A.** ≤ 0.125 µg/mL

**Q.** And the MIC90 (Yersinia pestis; Yersinia pestis)?
**A.** ≤ 0.125 µg/mL

**Q.** What about the MIC90 (Streptococcus pneumonia) of the same compound?
**A.** ≤ 0.5 µg/mL

**Q.** And the MIC90 (Bacillus anthracis; Bacillus anthracis)?
**A.** ≤ 0.5 µg/mL

**Q.** What about the MIC90 (Francisella tularensis; Francisella tularensis) of the same compound?
**A.** ≤ 0.125 µg/mL

**Q.** And the MIC90 (Streptococcus pyogenes)?
**A.** ≤ 0.125 µg/mL

**Q.** And the MIC90 (Burkholderia cepacia)?
**A.** ≤16

**Q.** What does the source list for `COc1cnc2ccc(F)c(CNC3CCC(NCc4cnc5c(n4)NC(=O)CO5)CC3)c2n1.Cl` [Formula (V) HCl salt, 6-((((1R,4R)-4-(((6-fluoro-3-methoxyquinoxalin-5-yl)methyl)amino)cyclohexyl)amino)methyl)-2H-pyrazino[2,3-b][1,4]oxazin-3(4H)-one, Hydrochloride]?
**A.** MIC (Bacteroides ovatus): ≤2 µg/mL; MIC90 (Yersinia pestis; Table 3 column A4 = Yersinia pestis): ≤0.12 µg/mL; H37Rv MIC [1]: ≤0.3 µg/mL; MIC90 (Bacillus anthracis; Table 3 column B4 = Bacillus anthracis): ≤0.25 µg/mL; MIC90 (citrobacter spp): ≤ 0.25 µg/mL; MIC (Bacteroides caccae): ≤4 µg/mL; MIC90 (Francisella tularensis; Table 3 column C4 = Francisella tularensis): ≤0.5 µg/mL; MIC (Bacteroides fragilis): ≤0.5 µg/mL; MIC90 (Streptococcus agalactiae): ≤2 µg/mL; MIC90 [2]: ≤4 µg/mL; MIC90 (Burkholderia mallei): ≤4 µg/mL; MIC90 (Burkholderia cepacia): ≤8; MIC [3]: ≤1 µg/mL; MIC90 (Serratia marcescens): ≤ 4 µg/mL; MIC90 (Providencia rettgeri): ≤ 0.5 µg/mL
